According to patent US11161842B2, “Bifunctional molecules for degradation of EGFR and methods of use” (Dana-Farber Cancer Institute, Inc., priority 2016, dated 2021):

Columns and labels:
[1] = target: T1, T790M/L858R transformed Ba/F3 cells (Homo sapiens, UniProt P00533, T790M/L858R, cells depend on it); experiment: Ba/F3 cell proliferation (MTS) assay, T790M/L858R; type: cell-based, murine; details: for % control: compound at 1 μM, inhibition of growth as percent of control; for EC50: antiproliferative activity
T1 construct: The constructs were shuttled into the retroviral vector JP 1540 using the BD Creator™ System (BD Biosciences)
T1 sequence (P00533 whole entry T790M/L858R): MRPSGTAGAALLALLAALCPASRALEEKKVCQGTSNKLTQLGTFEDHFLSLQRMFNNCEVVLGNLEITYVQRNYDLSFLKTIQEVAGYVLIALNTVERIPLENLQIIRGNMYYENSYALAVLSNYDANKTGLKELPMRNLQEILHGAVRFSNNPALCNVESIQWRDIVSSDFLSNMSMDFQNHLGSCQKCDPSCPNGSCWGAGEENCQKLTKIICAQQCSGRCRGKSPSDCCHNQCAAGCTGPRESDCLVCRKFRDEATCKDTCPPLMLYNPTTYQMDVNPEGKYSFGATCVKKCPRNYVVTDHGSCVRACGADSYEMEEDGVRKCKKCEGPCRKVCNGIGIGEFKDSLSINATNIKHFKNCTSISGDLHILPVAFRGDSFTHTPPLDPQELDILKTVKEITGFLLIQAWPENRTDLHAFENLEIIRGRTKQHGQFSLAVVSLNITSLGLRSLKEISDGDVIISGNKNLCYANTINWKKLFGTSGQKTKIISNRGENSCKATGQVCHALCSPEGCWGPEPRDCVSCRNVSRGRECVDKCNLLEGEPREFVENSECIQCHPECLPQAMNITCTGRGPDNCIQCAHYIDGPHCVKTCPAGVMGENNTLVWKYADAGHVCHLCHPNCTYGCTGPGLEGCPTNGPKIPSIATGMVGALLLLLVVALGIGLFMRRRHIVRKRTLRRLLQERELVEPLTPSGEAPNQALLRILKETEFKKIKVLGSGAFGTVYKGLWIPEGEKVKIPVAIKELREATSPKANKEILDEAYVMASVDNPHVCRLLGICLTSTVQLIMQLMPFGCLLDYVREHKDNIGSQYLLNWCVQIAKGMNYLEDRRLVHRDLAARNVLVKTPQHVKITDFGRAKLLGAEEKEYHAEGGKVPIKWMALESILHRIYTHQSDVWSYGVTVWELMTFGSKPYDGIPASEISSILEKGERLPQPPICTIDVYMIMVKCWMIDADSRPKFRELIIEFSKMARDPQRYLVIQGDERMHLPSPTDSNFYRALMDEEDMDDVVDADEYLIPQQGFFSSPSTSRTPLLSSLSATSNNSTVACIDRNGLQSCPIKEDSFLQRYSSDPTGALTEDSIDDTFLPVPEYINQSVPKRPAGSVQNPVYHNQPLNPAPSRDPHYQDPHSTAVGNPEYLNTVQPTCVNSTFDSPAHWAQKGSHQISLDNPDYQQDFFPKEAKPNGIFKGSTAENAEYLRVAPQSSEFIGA
From the text: The EGFR mutant L858R, Del E746_A750, L858R/T790M, DelE746_A750/T790M, L858R/T790M/C797S and Del/T790M/C797S Ba/F3 cells have been previously described (Zhou, W., Ercan, D., Chen, L., Yun, C. H., Li, D., Capelletti, M., Cortot, A. B., Chirieac, L., Iacob, R. E., Padera, R., et al. “Novel mutant-selective EGFR kinase inhibitors against EGFR T790M,” Nature 462, (2009), 1070-1074). All cell lines were maintained in RPMI 1640 (Cellgro; Mediatech Inc., Herndon, Calif.) supplemented with 10% FBS 100 units/mL penicillin, 100 units/mL streptomycin, and 2 mM glutamine. L858R cells were maintained in ACL-4 media (Invitrogen, Carlsbad, Calif.) supplemented with 5% FBS, 100 units/mL penicillin, 100 units/mL streptomycin, and 2 mM glutamine. The EGFR I941R mutation was introduced via site directed mutagenesis using the Quick Change Site-Directed Mutagenesis kit (Stratagene; La Jolla, Calif.) according to the manufacturer's instructions. All constructs were confirmed by DNA sequencing. The constructs were shuttled into the retroviral vector JP 1540 using the BD Creator™ System (BD Biosciences). Ba/F3 cells were infected with retrovirus and according to standard protocols, as described previously (Zhou et al, Nature 2009). Stable clones were obtained by selection in puromycin (2 μg/ml).
Growth and inhibition of growth was assessed by MTS assay and was performed according to previously established methods (Zhou et al., Nature 2009). The MTS assay is a colorimetric method for determining the number of viable cells that is based on the bioreduction of MTS by cells to a formazan product that is soluble in cell culture medium and can be detected spectrophotometrically. Ba/F3 cells of different EGFR genotypes were exposed to treatment for 72 hours and the number of cells used per experiment determined empirically and has been previously established (Zhou et al., Nature 2009). All experimental points were set up in six wells and all experiments were repeated at least three times. […] The curves were fitted using a non-linear regression model with a sigmoidal dose response.
Compounds of Table 1 were tested at a concentration of 1 μM against T790M/L858R transformed Ba/F3 cells. The assay, as described in Example 42, measured inhibition of growth as a percent of the inhibitory activity of the control. In Table 1, A is 0<% control <25, B is 25<% control <50, C is 50<% control <75, and D is 75<% control.
Compounds of Table 2 were tested in a T790M/L858R transformed Ba/F3 cell line as described in Example 42 and the EC50 values were calculated. In Table 2, A is EC50<500 nM, B is 500 nM<EC50<1000 nM, C is 1000 nM<EC50<5000 nM, and D is 5000 nM<EC50.

[2] = target: T2, T790M/L858R/C797S transformed Ba/F3 cells (Homo sapiens, UniProt P00533, T790M/C797S/L858R, cells depend on it); experiment: Ba/F3 cell proliferation (MTS) assay, T790M/L858R/C797S; type: cell-based, murine; details: antiproliferative activity
T2 construct: The constructs were shuttled into the retroviral vector JP 1540 using the BD Creator™ System (BD Biosciences)
T2 sequence (P00533 whole entry T790M/C797S/L858R): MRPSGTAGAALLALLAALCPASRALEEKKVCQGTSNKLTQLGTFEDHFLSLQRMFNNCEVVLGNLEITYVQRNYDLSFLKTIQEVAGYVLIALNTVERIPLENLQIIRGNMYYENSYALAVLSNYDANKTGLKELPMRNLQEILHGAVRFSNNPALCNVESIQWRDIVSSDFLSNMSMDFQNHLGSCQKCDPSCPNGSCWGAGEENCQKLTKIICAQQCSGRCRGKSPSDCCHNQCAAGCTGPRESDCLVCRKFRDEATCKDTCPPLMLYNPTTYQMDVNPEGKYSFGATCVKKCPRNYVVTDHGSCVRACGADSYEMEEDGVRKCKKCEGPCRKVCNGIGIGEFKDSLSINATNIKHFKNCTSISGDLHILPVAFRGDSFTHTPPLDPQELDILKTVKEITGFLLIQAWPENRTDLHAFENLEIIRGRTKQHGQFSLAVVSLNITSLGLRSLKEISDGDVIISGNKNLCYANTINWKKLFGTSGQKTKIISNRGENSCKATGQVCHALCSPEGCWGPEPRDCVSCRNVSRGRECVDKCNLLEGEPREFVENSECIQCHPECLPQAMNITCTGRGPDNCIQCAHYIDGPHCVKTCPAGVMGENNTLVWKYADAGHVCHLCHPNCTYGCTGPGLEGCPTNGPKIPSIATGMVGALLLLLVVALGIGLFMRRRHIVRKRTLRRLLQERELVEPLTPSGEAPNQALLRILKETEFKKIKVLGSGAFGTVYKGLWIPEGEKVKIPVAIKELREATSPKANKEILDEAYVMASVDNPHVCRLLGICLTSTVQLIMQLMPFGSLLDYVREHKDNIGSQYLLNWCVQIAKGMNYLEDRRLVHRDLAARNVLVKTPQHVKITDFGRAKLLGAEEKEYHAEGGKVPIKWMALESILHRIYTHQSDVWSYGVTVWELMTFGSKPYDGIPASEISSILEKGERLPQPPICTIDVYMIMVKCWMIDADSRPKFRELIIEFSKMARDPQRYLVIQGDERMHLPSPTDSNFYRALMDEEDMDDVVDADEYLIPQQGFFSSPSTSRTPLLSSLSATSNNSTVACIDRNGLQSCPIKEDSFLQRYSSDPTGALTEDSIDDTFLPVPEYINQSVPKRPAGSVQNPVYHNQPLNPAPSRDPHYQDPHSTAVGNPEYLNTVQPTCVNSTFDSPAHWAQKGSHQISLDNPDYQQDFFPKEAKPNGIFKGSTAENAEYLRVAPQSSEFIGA

SMILES: O=C1CCC(N2C(=O)c3cccc(NCCOCCOCCN4CCN(c5ccc(-c6ccc7c(c6)C(=O)N(C(C(=O)Nc6nccs6)c6ccccc6)C7)cc5)CC4)c3C2=O)C(=O)N1 (stereo not shown) [Compound I-21, 2-(6-(4-(4-(2-(2-(2-((2-(2,6-Dioxopiperidin-3-yl)-1,3-dioxoisoindolin-4-yl)amino)ethoxy)ethoxy)ethyl)piperazin-1-yl)phenyl)-1-oxoisoindolin-2-yl)-2-phenyl-N-(thiazol-2-yl)acetamide]
- % control [1]: C (C is 50<% control <75)

SMILES: O=C1CCC(N2C(=O)c3cccc(NCCOCCOCCN4CCN(c5ccc(-c6ccc7c(c6)C(=O)N(C(C(=O)Nc6nccs6)c6cc(F)ccc6O)C7)cc5)CC4)c3C2=O)C(=O)N1 (stereo not shown) [Compound I-33]
- EC50 [1]: < 500 nM
- % control [1]: A (A is 0<% control <25)
- EC50 [2]: 1000 to 5000 nM

SMILES: Cc1ncsc1-c1ccc([C@H](C)NC(=O)[C@@H]2C[C@@H](O)CN2C(=O)[C@@H](NC(=O)CCOCCOCCN2CCN(c3ccc(-c4ccc5c(c4)C(=O)N(C(C(=O)Nc4nccs4)c4ccccc4)C5)cn3)CC2)C(C)(C)C)cc1 (stereo partly drawn) [Compound I-24, (2S,4R)-1-((2S)-3,3-Dimethyl-2-(3-(2-(2-(4-(5-(3-oxo-2-(2-oxo-1-phenyl-2-(thiazol-2-ylamino)ethyl)isoindolin-5-yl)pyridin-2-yl)piperazin-1-yl)ethoxy)ethoxy)propanamido)butanoyl)-4-hydroxy-N—((S)-1-(4-(4-methylthiazol-5-yl)phenyl)ethyl)pyrrolidine-2-carboxamide]
- EC50 [1]: > 5000 nM
- EC50 [2]: > 5000 nM

SMILES: O=C1CCC(N2C(=O)c3cccc(N4CCN(c5ccc(-c6ccc7c(c6)C(=O)N(C(C(=O)Nc6nccs6)c6ccccc6)C7)cc5)CC4)c3C2=O)C(=O)N1 (stereo not shown) [Compound I-35]
- % control [1]: D (D is 75<% control)

SMILES: O=C1CCC(N2C(=O)c3cccc(NCCCCCCCCN4CCN(c5ccc(-c6ccc7c(c6)C(=O)N(C(C(=O)Nc6nccs6)c6ccccc6)C7)cc5)CC4)c3C2=O)C(=O)N1 (stereo not shown) [Compound I-19, 2-(6-(4-(4-(8-((2-(2,6-Dioxopiperidin-3-yl)-1,3-dioxoisoindolin-4-yl)amino)octyl)piperazin-1-yl)phenyl)-1-oxoisoindolin-2-yl)-2-phenyl-N-(thiazol-2-yl)acetamide]
- % control [1]: D (D is 75<% control)

SMILES: O=C1CCC(N2C(=O)c3cccc(NCCOCCOCCOCCN4CCN(c5ccc(-c6ccc7c(c6)C(=O)N(C(C(=O)Nc6nccs6)c6ccccc6)C7)cn5)CC4)c3C2=O)C(=O)N1 (stereo not shown) [Compound I-22, 2-(6-(6-(4-(2-(2-(2-(2-((2-(2,6-Dioxopiperidin-3-yl)-1,3-dioxoisoindolin-4-yl)amino)ethoxy)ethoxy)ethoxy)ethyl)piperazin-1-yl)pyridin-3-yl)-1-oxoisoindolin-2-yl)-2-phenyl-N-(thiazol-2-yl)acetamide]
- EC50 [1]: < 500 nM
- % control [1]: A (A is 0<% control <25)
- EC50 [2]: 500 to 1000 nM

SMILES: O=C1CCC(N2C(=O)c3cccc(NCCOCCC(=O)N4CCN(c5ccc(-c6ccc7c(c6)C(=O)N(C(C(=O)Nc6nccs6)c6ccccc6)C7)cc5)CC4)c3C2=O)C(=O)N1 (stereo not shown) [Compound I-8, 2-(6-(4-(4-(3-(2-((2-(2,6-Dioxopiperidin-3-yl)-1,3-dioxoisoindolin-4-yl)amino)ethoxy)propanoyl)piperazin-1-yl)phenyl)-1-oxoisoindolin-2-yl)-2-phenyl-N-(thiazol-2-yl)acetamide]
- % control [1]: D (D is 75<% control)

SMILES: O=C1CCC(N2C(=O)c3cccc(NCCOCCOCCC(=O)N4CCN(c5ccc(-c6ccc7c(c6)C(=O)N(C(C(=O)Nc6nccs6)c6cc(F)ccc6O)C7)cc5)CC4)c3C2=O)C(=O)N1 (stereo not shown) [Compound I-28, 2-(6-(4-(4-(3-(2-(2-((2-(2,6-dioxopiperidin-3-yl)-1,3-dioxoisoindolin-4-yl)amino)ethoxy)ethoxy)propanoyl)piperazin-1-yl)phenyl)-1-oxoisoindolin-2-yl)-2-(5-fluoro-2-hydroxyphenyl)-N-(thiazol-2-yl)acetamide]
- EC50 [1]: 500 to 1000 nM
- % control [1]: A (A is 0<% control <25)
- EC50 [2]: > 5000 nM

SMILES: Cc1ncsc1-c1ccc(CNC(=O)[C@@H]2C[C@@H](O)CN2C(=O)[C@@H](NC(=O)CCOCCOCCOCCC(=O)N2CCN(c3ccc(-c4ccc5c(c4)C(=O)N(C(C(=O)Nc4nccs4)c4cc(F)ccc4O)C5)cc3)CC2)C(C)(C)C)cc1 (stereo partly drawn) [Compound I-26, (2S,4R)-1-((2S)-2-(tert-Butyl)-16-(4-(4-(2-(1-(5-fluoro-2-hydroxyphenyl)-2-oxo-2-(thiazol-2-ylamino)ethyl)-3-oxoisoindolin-5-yl)phenyl)piperazin-1-yl)-4,16-dioxo-7,10,13-trioxa-3-azahexadecanoyl)-4-hydroxy-N-(4-(4-methylthiazol-5-yl)benzyl)pyrrolidine-2-carboxamide]
- % control [1]: D (D is 75<% control)

SMILES: Cc1ncsc1-c1ccc(CNC(=O)[C@@H]2C[C@@H](O)CN2C(=O)[C@@H](NC(=O)CCOCCOCCOCCC(=O)N2CCN(c3ccc(-c4ccc5c(c4)C(=O)N(C(C(=O)Nc4nccs4)c4ccccc4)C5)cc3)CC2)C(C)(C)C)cc1 (stereo partly drawn) [Compound I-25, (2S,4R)-1-((2S)-2-(tert-Butyl)-4,16-dioxo-16-(4-(4-(3-oxo-2-(2-oxo-1-phenyl-2-(thiazol-2-ylamino)ethyl)isoindolin-5-yl)phenyl)piperazin-1-yl)-7,10,13-trioxa-3-azahexadecanoyl)-4-hydroxy-N-(4-(4-methylthiazol-5-yl)benzyl)pyrrolidine-2-carboxamide]
- % control [1]: D (D is 75<% control)

SMILES: O=C1CCC(N2C(=O)c3cccc(NCCCCCCN4CCN(c5ccc(-c6ccc7c(c6)C(=O)N(C(C(=O)Nc6nccs6)c6ccccc6)C7)cc5)CC4)c3C2=O)C(=O)N1 (stereo not shown) [Compound I-17, 2-(6-(4-(4-(6-((2-(2,6-Dioxopiperidin-3-yl)-1,3-dioxoisoindolin-4-yl)amino)hexyl)piperazin-1-yl)phenyl)-oxoisoindolin-2-yl)2-phenyl-N-(thiazol-2-yl)acetamide]
- % control [1]: C (C is 50<% control <75)

SMILES: O=C(Nc1nccs1)C(c1cc(F)ccc1O)N1Cc2ccc(-c3ccc(N4CCNCC4)cc3)cc2C1=O (stereo not shown) [TL Compd 2]
- % control [1]: D (D is 75<% control)

SMILES: O=C(Nc1nccs1)C(c1ccccc1)N1Cc2ccc(-c3ccc(N4CCNCC4)cc3)cc2C1=O (stereo not shown) [TL Compd 1, 2-(1-oxo-6-(4-(piperazin-1-yl)phenyl)isoindolin-2-yl)-2-phenyl-N-(thiazol-2-yl)acetamide]
- % control [1]: B (B is 25<% control <50)

SMILES: O=C1CCC(N2C(=O)c3cccc(NCCOCCOCCC(=O)N4CCN(c5ccc(-c6ccc7c(c6)C(=O)N(C(C(=O)Nc6nccs6)c6ccccc6)C7)cc5)CC4)c3C2=O)C(=O)N1 (stereo not shown) [Compound I-7, 2-(6-(4-(4-(3-(2-(2-((2-(2,6-Dioxopiperidin-3-yl)-1,3-dioxoisoindolin-4-yl)amino)ethoxy)ethoxy)propanoyl)piperazin-1-yl)phenyl)-1-oxoisoindolin-2-yl)-2-phenyl-N-(thiazol-2-yl)acetamide]
- % control [1]: B (B is 25<% control <50)

SMILES: CC1(N2C(=O)c3cccc(NCCOCCOCCOCCC(=O)N4CCN(c5ccc(-c6ccc7c(c6)C(=O)N(C(C(=O)Nc6nccs6)c6ccccc6)C7)cc5)CC4)c3C2=O)CCC(=O)NC1=O (stereo not shown) [Compound I-27, 2-(6-(4-(4-(3-(2-(2-(2-((2-(3-Methyl-2,6-dioxopiperidin-3-yl)-1,3-dioxoisoindolin-4-yl)amino)ethoxy)ethoxy)ethoxy)propanoyl)piperazin-1-yl)phenyl)-1-oxoisoindolin-2-yl)-2-phenyl-N-(thiazol-2-yl)acetamide]
- % control [1]: D (D is 75<% control)
